Test results: paper PMC8632988, “Inhibition of SYK and cSrc kinases can protect bone and cartilage in preclinical models of osteoarthritis and rheumatoid arthritis” (Scientific Reports, 2021)
“And” between values parts separate entries of the source, which are not always exact repeats. Identical values can stand only once.

Experiments:
Experiment in all cases: Kinase selectivity profile assay
Format in all cases: biochemical
PKN3/PRK3 = target: T1, PKN3/PRK3 (Homo sapiens, UniProt Q6P5Z2); conditions: 500 nM; relative to DMSO; read-out: Residual enzymatic activity
T1 construct: purchased Reaction Biology Corporation
How it was run: (§1)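 Radiometric kinase assay run by a standard protocol. Unbound phosphate was removed by washing filters in phosphoric acid, and product radioactivity gave percent remaining kinase activity versus DMSO vehicle reactions. Run in duplicate.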

SRPK2 = target: T2, SRPK2 (Homo sapiens, UniProt P78362); conditions: 500 nM; relative to DMSO; read-out: Residual enzymatic activity
T2 construct: purchased Reaction Biology Corporation
How it was run: as §1

EPHA1 = target: T3, EPHA1 (Homo sapiens, UniProt P21709); conditions: for remaining activity at 0.5 µM: 500 nM, relative to DMSO, read-out: Residual enzymatic activity
T3 construct: purchased Reaction Biology Corporation (assay service)
T3 sequence (P21709 26-976): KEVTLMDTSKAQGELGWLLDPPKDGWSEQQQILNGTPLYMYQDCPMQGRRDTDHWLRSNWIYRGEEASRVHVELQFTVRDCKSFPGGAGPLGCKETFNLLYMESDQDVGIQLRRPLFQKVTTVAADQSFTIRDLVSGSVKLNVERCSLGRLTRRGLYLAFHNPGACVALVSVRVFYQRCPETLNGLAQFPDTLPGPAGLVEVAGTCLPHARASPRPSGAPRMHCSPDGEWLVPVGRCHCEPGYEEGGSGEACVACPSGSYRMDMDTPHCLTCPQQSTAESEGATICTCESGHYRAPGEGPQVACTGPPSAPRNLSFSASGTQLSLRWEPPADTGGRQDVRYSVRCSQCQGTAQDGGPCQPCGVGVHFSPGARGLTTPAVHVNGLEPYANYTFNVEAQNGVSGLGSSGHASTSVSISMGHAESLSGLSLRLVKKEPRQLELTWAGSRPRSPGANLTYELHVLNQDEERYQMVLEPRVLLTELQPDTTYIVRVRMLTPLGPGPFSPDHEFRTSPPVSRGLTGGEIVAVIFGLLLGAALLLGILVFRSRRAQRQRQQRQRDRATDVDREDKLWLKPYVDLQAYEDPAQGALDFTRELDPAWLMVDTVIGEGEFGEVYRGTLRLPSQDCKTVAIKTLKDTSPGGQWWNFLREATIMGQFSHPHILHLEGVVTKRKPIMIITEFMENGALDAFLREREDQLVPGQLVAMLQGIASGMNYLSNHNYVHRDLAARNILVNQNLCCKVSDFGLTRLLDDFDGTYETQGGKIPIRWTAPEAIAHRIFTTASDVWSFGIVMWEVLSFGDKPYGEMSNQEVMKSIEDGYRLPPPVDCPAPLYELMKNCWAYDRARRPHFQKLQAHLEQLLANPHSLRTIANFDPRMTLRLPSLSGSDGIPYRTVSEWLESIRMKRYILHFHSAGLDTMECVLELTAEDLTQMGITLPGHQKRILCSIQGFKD
How it was run: as §1

CDK2/Cyclin A1 = target: T4, CDK2/Cyclin A1 (Homo sapiens, UniProt P24941); conditions: 500 nM; relative to DMSO; read-out: Residual enzymatic activity
T4 construct: purchased Reaction Biology Corporation
How it was run: as §1

KHS/MAP4K5 = target: T5, KHS/MAP4K5 (Homo sapiens, UniProt Q9Y4K4); conditions: 500 nM; relative to DMSO; read-out: Residual enzymatic activity
T5 construct: purchased Reaction Biology Corporation
How it was run: as §1

CDK1/cyclin E = target: T6, CDK1/cyclin E (Homo sapiens, UniProt P06493); conditions: 500 nM; relative to DMSO; read-out: Residual enzymatic activity
T6 construct: purchased Reaction Biology Corporation
How it was run: as §1

PKN2/PRK2 = target: T7, PKN2/PRK2 (Homo sapiens, UniProt Q16513); conditions: 500 nM; relative to DMSO; read-out: Residual enzymatic activity
T7 construct: purchased Reaction Biology Corporation
How it was run: as §1

TBK1 = target: T8, TBK1 (Homo sapiens, UniProt Q9UHD2); conditions: 500 nM; relative to DMSO; read-out: Residual enzymatic activity
T8 construct: purchased Reaction Biology Corporation
How it was run: as §1

LYN B = target: T9, LYN B (Homo sapiens, UniProt P07948); conditions: for remaining activity at 0.5 µM: 500 nM, relative to DMSO, read-out: Residual enzymatic activity
T9 construct: purchased Reaction Biology Corporation (assay service)
How it was run: as §1

PIM3 = target: T10, PIM3 (Homo sapiens, UniProt Q86V86); conditions: 500 nM; relative to DMSO; read-out: Residual enzymatic activity
T10 construct: purchased Reaction Biology Corporation
How it was run: as §1

CK1a1 = target: T11, CK1a1 (Homo sapiens, UniProt P48729); conditions: 500 nM; relative to DMSO; read-out: Residual enzymatic activity
T11 construct: purchased Reaction Biology Corporation
How it was run: as §1

NEK7 = target: T12, NEK7 (Homo sapiens, UniProt Q8TDX7); conditions: 500 nM; relative to DMSO; read-out: Residual enzymatic activity
T12 construct: purchased Reaction Biology Corporation
How it was run: as §1

MAPKAPK2 = target: T13, MAPKAPK2 (Homo sapiens, UniProt P49137); conditions: 500 nM, relative to DMSO; for remaining activity at 0.5 µM: read-out: Residual enzymatic activity
T13 construct: purchased Reaction Biology Corporation
How it was run: as §1

TYRO3/SKY = target: T14, TYRO3/SKY (Homo sapiens, UniProt Q06418); conditions: 500 nM; relative to DMSO; read-out: Residual enzymatic activity
T14 construct: purchased Reaction Biology Corporation
How it was run: as §1

ABL1 = target: T15, ABL1 (Homo sapiens, UniProt P00519); conditions: 500 nM, relative to DMSO; for remaining activity at 0.5 µM: read-out: Residual enzymatic activity
T15 construct: purchased Reaction Biology Corporation
How it was run: as §1

P38a/MAPK14 = target: T16, P38a/MAPK14 (Homo sapiens, UniProt Q16539); conditions: 500 nM; relative to DMSO; read-out: Residual enzymatic activity
T16 construct: purchased Reaction Biology Corporation
How it was run: as §1

HIPK3 = target: T17, HIPK3 (Homo sapiens, UniProt Q9H422); conditions: 500 nM; relative to DMSO; read-out: Residual enzymatic activity
T17 construct: purchased Reaction Biology Corporation
How it was run: as §1

ACK1 = target: T18, ACK1 (Homo sapiens, UniProt Q07912); conditions: for remaining activity at 0.5 µM: 500 nM, relative to DMSO, read-out: Residual enzymatic activity
T18 construct: purchased Reaction Biology Corporation (assay service)
How it was run: as §1

EPHA8 = target: T19, EPHA8 (Homo sapiens, UniProt P29322); conditions: 500 nM, relative to DMSO
T19 construct: purchased Reaction Biology Corporation
How it was run: as §1

ALK2/ACVR1 = target: T20, ALK2/ACVR1 (Homo sapiens, UniProt Q04771); conditions: 500 nM; relative to DMSO; read-out: Residual enzymatic activity
T20 construct: purchased Reaction Biology Corporation
How it was run: as §1

PKAcb = target: T21, PKAcb (Homo sapiens, UniProt P22694); conditions: 500 nM; relative to DMSO; read-out: Residual enzymatic activity
T21 construct: purchased Reaction Biology Corporation
How it was run: as §1

STK32C/YANK3 = target: T22, STK32C/YANK3 (Homo sapiens, UniProt Q86UX6); conditions: 500 nM; relative to DMSO; read-out: Residual enzymatic activity
T22 construct: purchased Reaction Biology Corporation
How it was run: as §1

PKCd = target: T23, PKCd (Homo sapiens, UniProt Q05655); conditions: 500 nM; relative to DMSO; read-out: Residual enzymatic activity
T23 construct: purchased Reaction Biology Corporation
How it was run: as §1

FAK/PTK2 = target: T24, FAK/PTK2 (Homo sapiens, UniProt Q05397); conditions: 500 nM; relative to DMSO; read-out: Residual enzymatic activity
T24 construct: purchased Reaction Biology Corporation
How it was run: as §1

LIMK1 = target: T25, LIMK1 (Homo sapiens, UniProt P53667); conditions: for remaining activity at 0.5 µM: 500 nM, relative to DMSO, read-out: Residual enzymatic activity
T25 construct: purchased Reaction Biology Corporation (assay service)
How it was run: as §1

NEK9 = target: T26, NEK9 (Homo sapiens, UniProt Q8TD19); conditions: 500 nM; relative to DMSO; read-out: Residual enzymatic activity
T26 construct: purchased Reaction Biology Corporation
How it was run: as §1

MLCK2/MYLK2 = target: T27, MLCK2/MYLK2 (Homo sapiens, UniProt Q9H1R3); conditions: 500 nM; relative to DMSO; read-out: Residual enzymatic activity
T27 construct: purchased Reaction Biology Corporation
How it was run: as §1

[1] = 10-dose mode, threefold serial dilution from 10 μM

T18 sequence (Q07912 whole entry): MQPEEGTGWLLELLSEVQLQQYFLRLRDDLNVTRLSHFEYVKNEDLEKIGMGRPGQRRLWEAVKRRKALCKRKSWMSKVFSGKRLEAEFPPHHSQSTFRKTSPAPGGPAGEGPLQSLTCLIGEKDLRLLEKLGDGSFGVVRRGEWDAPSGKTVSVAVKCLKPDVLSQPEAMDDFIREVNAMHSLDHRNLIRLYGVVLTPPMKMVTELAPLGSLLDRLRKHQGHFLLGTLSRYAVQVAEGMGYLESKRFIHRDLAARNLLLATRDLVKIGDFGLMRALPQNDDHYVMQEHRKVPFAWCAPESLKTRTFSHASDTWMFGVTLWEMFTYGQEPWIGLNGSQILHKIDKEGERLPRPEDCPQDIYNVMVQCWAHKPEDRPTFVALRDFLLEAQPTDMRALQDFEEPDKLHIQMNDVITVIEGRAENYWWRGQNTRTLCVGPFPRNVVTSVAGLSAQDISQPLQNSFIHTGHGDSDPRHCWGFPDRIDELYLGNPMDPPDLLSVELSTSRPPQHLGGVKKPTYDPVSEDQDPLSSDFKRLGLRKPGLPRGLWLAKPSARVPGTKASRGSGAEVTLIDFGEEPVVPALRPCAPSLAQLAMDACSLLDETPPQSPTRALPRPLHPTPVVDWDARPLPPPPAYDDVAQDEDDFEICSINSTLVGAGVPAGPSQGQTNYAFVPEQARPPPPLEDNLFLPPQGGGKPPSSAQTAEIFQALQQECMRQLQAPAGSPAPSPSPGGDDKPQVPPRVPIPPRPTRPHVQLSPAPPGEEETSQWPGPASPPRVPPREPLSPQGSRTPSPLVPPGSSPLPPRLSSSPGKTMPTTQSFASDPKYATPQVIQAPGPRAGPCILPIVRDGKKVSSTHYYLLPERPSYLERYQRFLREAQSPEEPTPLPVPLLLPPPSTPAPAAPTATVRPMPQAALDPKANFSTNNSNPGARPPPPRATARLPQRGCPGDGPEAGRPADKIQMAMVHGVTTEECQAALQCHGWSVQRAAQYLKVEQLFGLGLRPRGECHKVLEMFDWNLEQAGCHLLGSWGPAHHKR
T25 sequence (P53667 whole entry): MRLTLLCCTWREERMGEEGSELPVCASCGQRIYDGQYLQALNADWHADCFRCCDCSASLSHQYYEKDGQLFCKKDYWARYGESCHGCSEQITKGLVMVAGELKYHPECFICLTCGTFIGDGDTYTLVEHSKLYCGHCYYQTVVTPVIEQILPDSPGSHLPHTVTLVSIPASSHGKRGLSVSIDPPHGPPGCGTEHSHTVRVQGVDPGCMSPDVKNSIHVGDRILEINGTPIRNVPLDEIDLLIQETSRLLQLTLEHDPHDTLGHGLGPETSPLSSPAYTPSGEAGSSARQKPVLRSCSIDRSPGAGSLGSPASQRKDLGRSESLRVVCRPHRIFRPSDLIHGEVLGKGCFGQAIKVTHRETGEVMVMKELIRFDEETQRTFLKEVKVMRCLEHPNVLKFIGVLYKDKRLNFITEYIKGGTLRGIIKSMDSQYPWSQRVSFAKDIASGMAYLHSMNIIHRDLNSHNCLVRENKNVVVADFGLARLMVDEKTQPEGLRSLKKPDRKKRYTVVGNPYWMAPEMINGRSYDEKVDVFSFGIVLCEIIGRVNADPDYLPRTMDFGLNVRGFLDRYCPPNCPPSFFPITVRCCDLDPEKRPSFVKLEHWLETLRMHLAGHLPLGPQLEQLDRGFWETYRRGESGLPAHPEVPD
T13 sequence (P49137 whole entry): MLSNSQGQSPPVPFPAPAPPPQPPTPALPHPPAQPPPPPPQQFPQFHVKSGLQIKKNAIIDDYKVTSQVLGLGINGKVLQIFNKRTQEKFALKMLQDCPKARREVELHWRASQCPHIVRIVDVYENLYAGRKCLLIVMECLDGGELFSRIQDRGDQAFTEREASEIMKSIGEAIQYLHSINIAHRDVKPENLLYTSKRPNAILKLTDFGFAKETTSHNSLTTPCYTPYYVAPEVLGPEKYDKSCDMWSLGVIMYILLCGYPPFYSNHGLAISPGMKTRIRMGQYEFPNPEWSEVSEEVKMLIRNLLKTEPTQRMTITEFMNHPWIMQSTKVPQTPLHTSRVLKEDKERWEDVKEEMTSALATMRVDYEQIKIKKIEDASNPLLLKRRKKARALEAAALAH
T9 sequence (P07948 1-491 isoform P07948-2): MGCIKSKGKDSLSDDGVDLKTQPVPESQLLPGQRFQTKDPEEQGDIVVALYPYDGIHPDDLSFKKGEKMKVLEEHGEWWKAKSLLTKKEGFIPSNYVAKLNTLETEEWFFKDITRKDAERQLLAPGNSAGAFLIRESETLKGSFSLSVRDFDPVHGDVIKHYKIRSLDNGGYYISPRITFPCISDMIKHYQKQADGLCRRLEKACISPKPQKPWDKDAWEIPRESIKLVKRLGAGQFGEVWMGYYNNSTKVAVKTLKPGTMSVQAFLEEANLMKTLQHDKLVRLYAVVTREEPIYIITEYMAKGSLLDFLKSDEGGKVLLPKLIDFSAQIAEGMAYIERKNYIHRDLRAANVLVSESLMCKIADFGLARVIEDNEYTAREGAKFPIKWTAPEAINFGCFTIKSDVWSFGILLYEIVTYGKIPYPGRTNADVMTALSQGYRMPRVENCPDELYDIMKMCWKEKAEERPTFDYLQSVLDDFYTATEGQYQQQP
T15 sequence (P00519 whole entry): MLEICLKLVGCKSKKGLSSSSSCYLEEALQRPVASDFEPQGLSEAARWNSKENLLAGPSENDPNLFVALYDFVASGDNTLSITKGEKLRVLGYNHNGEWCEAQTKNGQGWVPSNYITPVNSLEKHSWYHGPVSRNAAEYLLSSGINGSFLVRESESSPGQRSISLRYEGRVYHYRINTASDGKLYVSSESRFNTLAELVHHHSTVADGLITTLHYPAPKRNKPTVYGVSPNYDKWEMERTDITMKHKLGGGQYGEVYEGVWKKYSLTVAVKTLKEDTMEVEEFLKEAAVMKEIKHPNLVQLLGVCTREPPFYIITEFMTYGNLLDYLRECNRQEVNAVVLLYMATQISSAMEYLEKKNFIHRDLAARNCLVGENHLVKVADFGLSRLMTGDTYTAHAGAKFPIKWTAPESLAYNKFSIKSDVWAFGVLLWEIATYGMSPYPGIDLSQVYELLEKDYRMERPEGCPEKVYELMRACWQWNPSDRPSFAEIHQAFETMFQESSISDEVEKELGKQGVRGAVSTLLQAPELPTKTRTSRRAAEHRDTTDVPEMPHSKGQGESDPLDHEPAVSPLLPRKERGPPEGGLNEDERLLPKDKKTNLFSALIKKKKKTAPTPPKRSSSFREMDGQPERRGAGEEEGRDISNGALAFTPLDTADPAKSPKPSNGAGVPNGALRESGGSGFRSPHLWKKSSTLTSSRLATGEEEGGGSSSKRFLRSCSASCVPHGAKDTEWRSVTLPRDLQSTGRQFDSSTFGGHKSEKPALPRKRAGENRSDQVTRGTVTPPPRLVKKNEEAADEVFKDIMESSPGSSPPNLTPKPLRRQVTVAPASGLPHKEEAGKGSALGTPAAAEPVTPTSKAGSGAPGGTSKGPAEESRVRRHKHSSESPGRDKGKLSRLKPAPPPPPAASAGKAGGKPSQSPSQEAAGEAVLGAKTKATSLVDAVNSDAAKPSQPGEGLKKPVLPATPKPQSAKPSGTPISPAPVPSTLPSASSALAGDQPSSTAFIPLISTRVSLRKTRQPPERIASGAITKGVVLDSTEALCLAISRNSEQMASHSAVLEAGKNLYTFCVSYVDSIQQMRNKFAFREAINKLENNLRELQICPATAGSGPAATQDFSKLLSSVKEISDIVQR
T14 sequence (Q06418 41-890): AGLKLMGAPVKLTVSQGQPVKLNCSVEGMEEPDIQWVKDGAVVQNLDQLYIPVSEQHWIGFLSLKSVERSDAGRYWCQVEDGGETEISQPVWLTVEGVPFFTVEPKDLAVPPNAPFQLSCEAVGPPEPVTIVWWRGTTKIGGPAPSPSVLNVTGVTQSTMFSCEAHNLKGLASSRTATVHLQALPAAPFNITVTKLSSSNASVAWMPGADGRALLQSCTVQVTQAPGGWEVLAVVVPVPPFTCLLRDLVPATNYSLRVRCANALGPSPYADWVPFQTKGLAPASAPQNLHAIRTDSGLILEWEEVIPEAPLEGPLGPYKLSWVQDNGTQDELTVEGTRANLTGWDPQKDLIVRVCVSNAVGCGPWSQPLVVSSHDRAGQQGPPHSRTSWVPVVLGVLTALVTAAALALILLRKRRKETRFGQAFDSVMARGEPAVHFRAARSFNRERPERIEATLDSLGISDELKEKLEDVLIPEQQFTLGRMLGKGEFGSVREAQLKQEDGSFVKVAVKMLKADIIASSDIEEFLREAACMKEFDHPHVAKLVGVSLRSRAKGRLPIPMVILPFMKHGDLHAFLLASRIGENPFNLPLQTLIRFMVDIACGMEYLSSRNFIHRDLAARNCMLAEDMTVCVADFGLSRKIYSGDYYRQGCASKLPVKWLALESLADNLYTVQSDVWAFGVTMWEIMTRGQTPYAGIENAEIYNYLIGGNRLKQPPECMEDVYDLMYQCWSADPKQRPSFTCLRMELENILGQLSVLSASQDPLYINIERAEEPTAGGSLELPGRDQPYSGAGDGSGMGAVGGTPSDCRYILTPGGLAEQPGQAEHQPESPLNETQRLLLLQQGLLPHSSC
T22 sequence (Q86UX6 whole entry): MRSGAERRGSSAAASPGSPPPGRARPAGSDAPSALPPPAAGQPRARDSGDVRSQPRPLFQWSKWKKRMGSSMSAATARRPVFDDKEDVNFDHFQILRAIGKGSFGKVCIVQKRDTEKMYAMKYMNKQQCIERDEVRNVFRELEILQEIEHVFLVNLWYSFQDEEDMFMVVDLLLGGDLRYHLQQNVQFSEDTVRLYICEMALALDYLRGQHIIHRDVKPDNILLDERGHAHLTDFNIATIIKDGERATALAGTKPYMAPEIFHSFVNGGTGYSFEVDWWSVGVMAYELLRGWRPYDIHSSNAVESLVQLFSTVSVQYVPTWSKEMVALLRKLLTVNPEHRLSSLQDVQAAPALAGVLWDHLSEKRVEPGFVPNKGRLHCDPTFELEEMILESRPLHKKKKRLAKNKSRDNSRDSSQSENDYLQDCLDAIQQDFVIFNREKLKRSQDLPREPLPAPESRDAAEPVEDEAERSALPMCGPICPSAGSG

SMILES | remaining activity at 0.5 µM (PKN3/PRK3) [%] | remaining activity at 0.5 µM (SRPK2) [%] | remaining activity at 0.5 µM (EPHA1) [%] | remaining activity at 0.5 µM (CDK2/Cyclin A1) [%] | remaining activity at 0.5 µM (KHS/MAP4K5) [%] | remaining activity at 0.5 µM (CDK1/cyclin E) [%] | remaining activity at 0.5 µM (PKN2/PRK2) [%] | remaining activity at 0.5 µM (TBK1) [%] | remaining activity at 0.5 µM (LYN B) [%] | remaining activity at 0.5 µM (PIM3) [%] | remaining activity at 0.5 µM (CK1a1) [%] | remaining activity at 0.5 µM (NEK7) [%] | remaining activity at 0.5 µM (MAPKAPK2) [%] | remaining activity at 0.5 µM (TYRO3/SKY) [%] | remaining activity at 0.5 µM (ABL1) [%] | remaining activity at 0.5 µM (P38a/MAPK14) [%] | remaining activity at 0.5 µM (HIPK3) [%] | remaining activity at 0.5 µM (ACK1) [%] | remaining activity at 0.5 µM (ALK2/ACVR1) [%] | remaining activity at 0.5 µM (PKAcb) [%] | further results
COc1cc(Nc2ncnc(Nc3cc4c(cn3)NC(=O)C(C)(C)O4)n2)cc(OC)c1OC [MT-SYK-03] | 90 | 104 | 48.3 | 90.7 | 91.8 | 94.6 | 95.6 | 66.8 | 25.7 | 98.8 | 101 | 95.9 | 101 | 104 | > 54 | 110 | 110 | 5.4 | 241 | 98.4 | IC50 (EPHA1; [1]): 457 nM; IC50 (LYN B; [1]): 14.2 nM; Residual enzymatic activity (MAPKAPK2): did not inhibit any; Residual enzymatic activity (ABL1): 68.0%; IC50 (ACK1; [1]): 86 nM and 85.7 nM; Residual enzymatic activity (EPHA8): 99.7%; remaining activity at 0.5 µM (STK32C/YANK3): 115%; remaining activity at 0.5 µM (PKCd): 110%; remaining activity at 0.5 µM (FAK/PTK2): 87.4%; remaining activity at 0.5 µM (LIMK1): 11.4%; IC50 (LIMK1; [1]): 45 nM and 44.6 nM; remaining activity at 0.5 µM (NEK9): 55.7%; remaining activity at 0.5 µM (MLCK2/MYLK2): 105%
COc1cc(Nc2ncc(F)c(Nc3ccc4c(n3)NC(=O)C(C)(C)O4)n2)cc(OC)c1OC [R406, reference compound] | 40.8 | 104 | 25.4 | 59.5 | 87.1 | 76.5 | 85.4 | 13.9 | 14.5 | 82.8 | 95.5 | 62.3 | 106 | 94.6 | 68.6 | 99.9 | 96.4 | 0.6 | 135 | 70.1 | remaining activity at 0.5 µM (EPHA8; read-out: Residual enzymatic activity): 92.6%; remaining activity at 0.5 µM (STK32C/YANK3): 102%; remaining activity at 0.5 µM (PKCd): 97.7%; remaining activity at 0.5 µM (FAK/PTK2): 29.7%; remaining activity at 0.5 µM (LIMK1): 7.2%; remaining activity at 0.5 µM (NEK9): 2.5%; remaining activity at 0.5 µM (MLCK2/MYLK2): 89.2%
